From PubChem BioAssay AID1648 (Sanford-Burnham Center for Chemical Genomics, 2009)
Active and inactive are the calls of the source. The rule behind the calls is not given here.

Biological target: Serine/threonine-protein kinase mTOR (Homo sapiens) (UniProt P42345)
Assay: binders of mTOR FRB domain, biophysical, NMR (AID 1648)
Conditions: NMR binding to FRB domain, chemical shift

Chain of Serine/threonine-protein kinase mTOR (Homo sapiens) (P42345 2015-2114): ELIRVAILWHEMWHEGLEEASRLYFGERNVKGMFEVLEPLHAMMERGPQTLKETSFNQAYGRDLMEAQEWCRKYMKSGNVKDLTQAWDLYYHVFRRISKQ

CCCc1nc2ccccc2c2nc(N)nn12
Kd: > 4 mM (inactive)

OC12CC3CC(CC(C3)C1)C2
Kd: > 4 mM (inactive)

O=C1NC(=S)N/C1=C/c1ccc(O)c(Cl)c1
Kd: > 4 mM (inactive)

NC(=O)c1cccnc1Oc1ccccc1
Kd: > 4 mM (inactive)

CC(C)=CCc1c(O)cc2oc(C)cc(=O)c2c1O
Kd: > 4 mM (inactive)

CSc1ccn(CCC(=O)O)c(=O)n1
Kd: > 4 mM (inactive)

COc1cc(C(C)=O)ccc1OCC(O)Cn1ccnc1 (configuration not stated)
Kd: > 4 mM (inactive)

CCCn1cnn2c(=O)cc(C)nc12
Kd: > 4 mM (inactive)

CC(=O)c1cc2c(cc1O)OC(C)(C)C=C2
Kd: > 4 mM (inactive)

C[C@@H]1[C@H]2[C@H](O[C@@H]3O[C@H](CO)[C@@H](O)[C@H](O)[C@H]3O)OC=C(C(=O)O)[C@H]2C[C@@H]1O
Kd: > 4 mM (inactive)

NC(c1ccccc1)c1ccccn1 (configuration not stated)
Kd: > 4 mM (inactive)

O=C(Nc1ccc2c(c1)OCO2)c1cccc(F)c1
Kd: > 4 mM (inactive)

COc1cc(CNC(=O)CCCC/C=C/C(C)C)ccc1O
Kd: > 4 mM (inactive)

Cc1ccccc1C(=O)Nn1cnnc1
Kd: > 4 mM (inactive)

O=CN1CCN(C2CC(=O)N(c3ccccc3)C2=O)CC1 (configuration not stated)
Kd: > 4 mM (inactive)

O=c1cc(-c2ccccc2)oc2cc(O)c(O)c(O)c12
Kd: > 4 mM (inactive)

CCC(=O)Nc1ccc(-c2nn3c(C)nnc3s2)cc1
Kd: > 4 mM (inactive)

CC(=O)Nc1cccc(NC(=O)c2ccco2)c1
Kd: > 4 mM (inactive)

Cc1nnc(N2CCc3ccccc3C2)[nH]c1=O
Kd: > 4 mM (inactive)

CC1=C2C(O)C(=O)OC3CC4C(C)(C)C(=O)C=C[C@]4(C)C(CC1)[C@]23C (some centres not stated)
Kd: > 4 mM (inactive)

O=C(NN1C(=O)C2C3C=CC(C3)C2C1=O)C1CC=CCC1 (configuration not stated)
Kd: > 4 mM (inactive)

Cc1nnc(SCC(N)=O)c2ccccc12
Kd: > 4 mM (inactive)

Cc1cc(C)n(CCCC(=O)O)n1
Kd: > 4 mM (inactive)

CCOc1nc(C)ccc1-c1noc(-c2ccco2)n1
Kd: > 4 mM (inactive)

O=C(NCN1CCOCC1)c1cnccn1
Kd: > 4 mM (inactive)

CCCS(=O)(=O)N1CCN(c2ccccn2)CC1
Kd: > 4 mM (inactive)

CSc1ccc(C2NC(=O)CCC2[N+](=O)[O-])cc1 (configuration not stated)
Kd: > 4 mM (inactive)

CNC(=O)Oc1ccc2c(c1)[C@]1(C)CCN(C)[C@@H]1N2C
Kd: > 4 mM (inactive)

N#Cc1sc2nc3c(c(-c4cccnc4)c2c1N)CCC3
Kd: > 4 mM (inactive)

COC[C@]12CN(C=O)C3[C@@H]4[C@H](OC)C1[C@]3(C1CC3(O)C(OC)C(O)C4(OC(C)=O)C1C3OC(=O)c1ccccc1)[C@@H](OC)C[C@H]2O (some centres not stated)
Kd: > 4 mM (inactive)

Nc1nnc(SCc2ccc(F)cc2)s1
Kd: > 4 mM (inactive)

O=c1[nH]c(=O)c2[nH]cnc2[nH]1
Kd: > 4 mM (inactive)

S=c1[nH]nc(-c2cccnc2)n1C1CCCCC1
Kd: > 4 mM (inactive)

COc1cc(-c2coc3cc(OCc4ccccc4)c(OC)c(O)c3c2=O)cc(O)c1OC
Kd: > 4 mM (inactive)

CN1C(=O)c2ccc(C(=O)NCc3ccccc3)cc2C1=O
Kd: > 4 mM (inactive)

Cc1nnsc1C(=O)Nc1cccc(S(N)(=O)=O)c1
Kd: > 4 mM (inactive)

COc1cc(/C=C/C(=O)O)cc(OC)c1OC
Kd: > 4 mM (inactive)

Clc1ccc(-c2nnc3ccccn23)cc1
Kd: > 4 mM (inactive)

CCSc1nnc2[nH]c(=O)cc(C)n12
Kd: > 4 mM (inactive)

O=c1c(-c2ccccc2)coc2cc(O)cc(O)c12
Kd: > 4 mM (inactive)

N[C@@H](C(=O)O)[C@@H](O)[C@H](O)[C@H](O)CO
Kd: > 4 mM (inactive)

Cn1nc(C(=O)Nc2cccnc2)c2ccccc2c1=O
Kd: > 4 mM (inactive)

O=c1[nH]cc(N2CCCCC2)c(=O)[nH]1
Kd: > 4 mM (inactive)

NCc1ccc2c(c1)OCO2
Kd: > 4 mM (inactive)

O=c1ccnc(Nc2ccccc2O)[nH]1
Kd: > 4 mM (inactive)

O=c1[nH]c(N2CCOCC2)nc2ccccc12
Kd: > 4 mM (inactive)

C/C(O)=c1/sc2cc(C)nc(=N)n2c1=O
Kd: > 4 mM (inactive)

NC(=O)c1ccccc1NC(=O)C1CC1
Kd: > 4 mM (inactive)

CSc1nc2nc(C)cc(=O)n2[nH]1
Kd: > 4 mM (inactive)

Cc1cc(NC(=O)c2cc(C)on2)no1
Kd: > 4 mM (inactive)

CC(=O)NS(=O)(=O)c1ccc(C)cc1
Kd: > 4 mM (inactive)

CCN(CC)c1nc2n(c(=O)n1)CCO2
Kd: > 4 mM (inactive)

Cc1ccc(C2NS(=O)(=O)N=C2N)cc1 (configuration not stated)
Kd: > 4 mM (inactive)

CC(C)(C)c1cc(CN)c(C(=O)O)o1
Kd: > 4 mM (inactive)

NC(=O)CN1CC(=O)NC(=O)C1
Kd: > 4 mM (inactive)

CC(C)(C)C(=O)N1CCCC1C(=O)O (configuration not stated)
Kd: > 4 mM (inactive)

COc1ccc2nc(NC(=O)c3cnccn3)sc2c1
Kd: > 4 mM (inactive)

OCc1cc(-c2cccs2)on1
Kd: > 4 mM (inactive)

O=c1c2ccccc2oc2ccc(O)cc12
Kd: > 4 mM (inactive)

Cc1cc(-c2ccccc2)nc2cc(C(N)=O)nn12
Kd: > 4 mM (inactive)

Nc1nc2ncc(CNc3ccc(C(=O)N[C@@H](CCC(=O)O)C(=O)O)cc3)nc2c(=O)[nH]1
Kd: > 4 mM (inactive)

O=c1c2ccccc2nc2n1CCCCN2
Kd: > 4 mM (inactive)

CS(=O)(=O)c1ccccc1C(=O)Nc1nccs1
Kd: > 4 mM (inactive)

NC(=O)C1CCN(CN2C(=O)c3ccccc3C2=O)CC1
Kd: > 4 mM (inactive)

c1ccc(CCc2nc(-c3ccccn3)no2)cc1
Kd: > 4 mM (inactive)

Cc1ccccc1-n1c(-c2cccnc2)n[nH]c1=S
Kd: > 4 mM (inactive)

c1csc(-c2nnc3ccccn23)c1
Kd: > 4 mM (inactive)

CC(=O)N1CCN(c2ccc(O)cc2)CC1
Kd: > 4 mM (inactive)

COc1ccc(/C=C2/NC(=S)NC2=O)cc1
Kd: > 4 mM (inactive)

CC1(O)CC2C=CC1C2 (configuration not stated)
Kd: > 4 mM (inactive)

COC(=O)/C(=C1\OC(=O)C(c2ccccc2)C1=O)c1ccccc1 (configuration not stated)
Kd: > 4 mM (inactive)

O=C(O)C1Cc2ccccc2N1 (configuration not stated)
Kd: > 4 mM (inactive)

CC(=O)c1cc2c(s1)SCC(=O)N2
Kd: > 4 mM (inactive)

NC(=O)CN1C(=O)c2cccc3cccc1c23
Kd: > 4 mM (inactive)

Cc1onc(-c2c(Cl)cccc2Cl)c1C(N)=O
Kd: > 4 mM (inactive)

O=C1NC(=O)C(Cc2ccccc2)C(=O)N1
Kd: > 4 mM (inactive)

Cc1cc(C(=O)Nc2cccnc2)cs1
Kd: > 4 mM (inactive)

NCc1ccc2c(c1)OCCO2
Kd: > 4 mM (inactive)

O=c1cccc2n1CC1CC2CN2CCCC[C@@H]12 (some centres not stated)
Kd: > 4 mM (inactive)

O=C(O)c1cncc(-c2cccs2)c1
Kd: > 4 mM (inactive)

CN1CCN(CC(=O)NC2CCCCC2)CC1
Kd: > 4 mM (inactive)

COC(=O)[C@]1(C)CC[C@]2(C)CC[C@]3(C)C4=CC=C5C(=CC(=O)C(O)=C5C)[C@]4(C)CC[C@@]3(C)[C@@H]2C1
Kd: > 4 mM (inactive)

CCOc1cccc(C(=O)c2ccc(O)c(O)c2O)c1
Kd: > 4 mM (inactive)

O=c1cc(CO)oc(CN2CCCCC2)c1O
Kd: > 4 mM (inactive)

COc1ccc(C[C@H]2NC[C@H](O)[C@H]2OC(C)=O)cc1
Kd: > 4 mM (inactive)

CC(=O)c1cc(-c2nc3ccccc3n2C)n(C)c1
Kd: > 4 mM (inactive)

O=C(Nc1ccccn1)c1cc(-n2cnnc2)ccc1Cl
Kd: > 4 mM (inactive)

Nc1ccc(-n2cccn2)cc1
Kd: > 4 mM (inactive)

Cn1c2c(c(=O)n(C)c1=O)CN(Cc1ccco1)CN2
Kd: > 4 mM (inactive)

O=C(O)c1cc2ccccc2cn1
Kd: > 4 mM (inactive)

COc1ccc(S(=O)(=O)NCCO)cc1
Kd: > 4 mM (inactive)

Cc1cc(C(=O)NCc2cccnc2)no1
Kd: > 4 mM (inactive)

Cc1nn(C)c(C)c1C(=O)O
Kd: > 4 mM (inactive)

c1ccc(-c2nnc3sc(-c4ccncc4)nn23)cc1
Kd: > 4 mM (inactive)

Cc1ccc(/C=N/n2c(C)nnc2C)cc1
Kd: > 4 mM (inactive)

CC(=O)O[C@H]1C[C@@H](OC(C)=O)C(C)(C)C2C[C@@H](OC(C)=O)[C@]3(C)C(CC[C@@]4(C)[C@H](c5ccoc5)C(=O)[C@H]5O[C@]543)[C@]21C (some centres not stated)
Kd: > 4 mM (inactive)

C[C@H]1O[C@@H](O[C@H]2[C@@H](O)C[C@H](O[C@H]3[C@@H](O)C[C@H](O[C@H]4CC[C@]5(C)C6C[C@@H](O)[C@]7(C)[C@@H](C8=CC(=O)OC8)CC[C@]7(O)C6CC[C@@H]5C4)O[C@@H]3C)O[C@@H]2C)C[C@H](O)[C@@H]1O (some centres not stated)
Kd: > 4 mM (inactive)

COc1ccc2c(c1)OCc1c-2oc2cc(OC)ccc12
Kd: > 4 mM (inactive)

O=c1[nH]c(O)c(C=NCc2cccs2)c(=O)[nH]1
Kd: > 4 mM (inactive)

Cc1nnc(Nc2cccnc2)[nH]c1=O
Kd: > 4 mM (inactive)

O=C(O)CSCc1c(F)cccc1Cl
Kd: > 4 mM (inactive)

NCC(=O)c1ccccc1
Kd: > 4 mM (inactive)

O=C(O)C1=Cc2ccccc2OC1
Kd: > 4 mM (inactive)

O=C(Nc1nccs1)c1cccnc1
Kd: > 4 mM (inactive)

Cc1cc(C(=O)N2CCN(S(C)(=O)=O)CC2)cs1
Kd: > 4 mM (inactive)

Cc1cc(O)cc(=O)o1
Kd: > 4 mM (inactive)

CCOC(=O)c1ccc2c(c1)nnn2C
Kd: > 4 mM (inactive)

CC(C)(O)CC[C@@H](O)[C@](C)(O)C1CC[C@@]2(O)C3=CC(=O)C4C[C@@H](O)[C@@H](O)C[C@]4(C)C3CC[C@]12C (some centres not stated)
Kd: > 4 mM (inactive)

CC1=C(C(=O)Nc2ccccc2)SCCO1
Kd: > 4 mM (inactive)

CNC(=S)Nc1cccc(C(=O)O)c1
Kd: > 4 mM (inactive)

CSc1nnc2c(n1)OC=Nc1ccccc1-2
Kd: > 4 mM (inactive)

COc1ccc2c(C)cc(=O)oc2c1
Kd: > 4 mM (inactive)

O=C(CS(=O)(=O)c1ccccc1)N1CCCCCC1
Kd: > 4 mM (inactive)

Nc1cncc(C(=O)O)c1
Kd: > 4 mM (inactive)

CCOC(=O)C1CCN(c2ncnc3nc[nH]c23)CC1
Kd: > 4 mM (inactive)

O=C(CSc1ncccn1)Nc1nccs1
Kd: > 4 mM (inactive)

CC(=O)CC(=O)N1C(O)CC[N+]1(C)C (configuration not stated)
Kd: > 4 mM (inactive)
